# Reference: patent US10399940B2, “Substituted pyrrolidines and methods of use” (AbbVie S.à.r.l., priority 2016, dated 2019)
# pEC50: −log10 of the molar value. Where two headings read alike, the source gives them in different places.
# Biological target: T1, F508delCFTR (Homo sapiens, UniProt P13569, DEL508-508)
# T1 construct: expressed in transfected cells; host or cells: CFBE41o- (human lung derived epithelial cell line), doxycycline-inducible expression
# Assay: Cell Surface Expression-Horse Radish Peroxidase (CSE-HRP) assay
# Assay type: cell-based
# Conditions: CFBE41o-F508delCFTR-HRP cells; for Maximum % activity (with co-corrector): with co-corrector (2 μM); for Maximum % activity (with co-corrector) / Maximum % activity (without co-corrector): normalized to on-plate positive control, highest concentration 20 μM
# Summary of the method: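 CFBE41o- cells expressed F508delCFTR with HRP in the fourth exofacial loop, induced by 0.5 μg/mL doxycycline for 72 h at 37 °C. Compounds alone or with 2 μM co-corrector ran 18–24 h at 33 °C, 8-point 3-fold from 20 μM. Washed-cell luminol luminescence was normalized to DMSO and positive control, fitted sigmoidally for EC50 (three plates).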
# [1] = test compound without co-corrector, 18-24 hours at 33° C., read-out: EC50 (without co-corrector)
# [2] = with co-corrector (2 μM of 3-[(2R,4R)-4-({[1-(2,2-difluoro-1,3-benzodioxol-5-yl)cyclopropyl]carbonyl}amino)-7-methoxy-3,4-dihydro-2H-chromen-2-yl]benzoic acid), read-out: EC50 (with co-corrector)
# T1 sequence (P13569 with tags, fused parts or gaps DEL508-508): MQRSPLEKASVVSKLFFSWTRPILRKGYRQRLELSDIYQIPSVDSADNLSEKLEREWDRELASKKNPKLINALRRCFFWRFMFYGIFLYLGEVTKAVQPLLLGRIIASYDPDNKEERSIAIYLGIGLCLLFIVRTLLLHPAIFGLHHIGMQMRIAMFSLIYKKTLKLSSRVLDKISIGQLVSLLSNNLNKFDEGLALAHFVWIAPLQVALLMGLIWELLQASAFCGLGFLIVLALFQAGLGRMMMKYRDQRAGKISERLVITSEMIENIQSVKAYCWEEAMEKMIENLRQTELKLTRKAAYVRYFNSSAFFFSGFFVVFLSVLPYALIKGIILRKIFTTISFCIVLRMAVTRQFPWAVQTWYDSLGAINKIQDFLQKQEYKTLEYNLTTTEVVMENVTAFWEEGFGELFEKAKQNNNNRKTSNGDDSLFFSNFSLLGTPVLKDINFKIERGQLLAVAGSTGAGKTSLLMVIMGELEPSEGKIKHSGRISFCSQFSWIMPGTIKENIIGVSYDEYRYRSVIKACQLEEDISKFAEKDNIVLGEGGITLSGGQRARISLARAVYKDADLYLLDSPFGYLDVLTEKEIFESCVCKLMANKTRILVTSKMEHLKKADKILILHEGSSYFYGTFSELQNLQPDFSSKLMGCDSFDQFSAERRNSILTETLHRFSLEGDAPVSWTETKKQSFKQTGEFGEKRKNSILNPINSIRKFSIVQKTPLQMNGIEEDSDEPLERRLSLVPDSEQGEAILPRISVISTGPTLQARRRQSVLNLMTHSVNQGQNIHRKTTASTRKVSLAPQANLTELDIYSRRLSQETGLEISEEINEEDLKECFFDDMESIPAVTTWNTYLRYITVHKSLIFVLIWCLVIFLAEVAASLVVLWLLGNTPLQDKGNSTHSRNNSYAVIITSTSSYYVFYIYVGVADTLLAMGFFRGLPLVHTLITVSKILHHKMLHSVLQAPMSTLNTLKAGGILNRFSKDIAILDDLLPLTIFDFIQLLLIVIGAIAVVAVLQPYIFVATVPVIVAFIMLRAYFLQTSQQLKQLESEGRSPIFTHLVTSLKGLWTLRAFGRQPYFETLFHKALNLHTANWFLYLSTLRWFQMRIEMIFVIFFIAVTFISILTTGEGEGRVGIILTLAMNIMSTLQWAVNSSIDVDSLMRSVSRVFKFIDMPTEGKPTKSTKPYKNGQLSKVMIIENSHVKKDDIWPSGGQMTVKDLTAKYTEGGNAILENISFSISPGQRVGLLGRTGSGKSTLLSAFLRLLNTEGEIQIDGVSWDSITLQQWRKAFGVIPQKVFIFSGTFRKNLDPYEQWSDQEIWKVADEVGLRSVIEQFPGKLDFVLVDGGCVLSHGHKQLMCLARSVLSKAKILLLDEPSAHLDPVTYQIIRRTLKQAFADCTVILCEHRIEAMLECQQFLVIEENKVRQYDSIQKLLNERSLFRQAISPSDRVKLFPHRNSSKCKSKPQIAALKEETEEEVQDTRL
Molecule,pEC50 [1],pEC50 [2],Maximum % activity (with co-corrector),Maximum % activity (without co-corrector)
"COc1nc(C(C)(C)C)ccc1CO[C@H]1[C@H](C(C)(C)C)[C@@H](C(=O)O)N(C(=O)C2CCCCC2)[C@H]1c1cccnc1OC(C)C [Example 291, (2S,3R,4S,5S)-3-tert-butyl-4-[(6-tert-butyl-2-methoxypyridin-3-yl)methoxy]-1-(cyclohexanecarbonyl)-5-{2-[(propan-2-yl)oxy]pyridin-3-yl}pyrrolidine-2-carboxylic acid]",5.00 to 6.00,5.00 to 6.00,+++ (≥350),+++ (≥200)
"CCc1ccccc1[C@H]1[C@@H](OCc2cc3cccc(C(F)(F)F)c3o2)[C@H](C(C)(C)C)[C@@H](C(=O)O)N1C(=O)[C@@H]1CCCCO1 [Example 292, (2S,3R,4S,5S)-3-tert-butyl-5-(2-ethylphenyl)-1-[(2S)-oxane-2-carbonyl]-4-{[7-(trifluoromethyl)-1-benzofuran-2-yl]methoxy}pyrrolidine-2-carboxylic acid]",5.00 to 6.00,5.00 to 6.00,+++ (≥350),++ (≥100 and <200)
"COc1ncc(C2CCC2)cc1CO[C@H]1[C@H](C(C)(C)C)[C@@H](C(=O)O)N(S(=O)(=O)c2cccc3ccccc23)[C@H]1c1cccnc1OC(C)C [Example 294, (2S,3R,4S,5S)-3-tert-butyl-4-[(5-cyclobutyl-2-methoxypyridin-3-yl)methoxy]-1-(naphthalene-1-sulfonyl)-5-{2-[(propan-2-yl)oxy]pyridin-3-yl}pyrrolidine-2-carboxylic acid]",< 5.00,5.00 to 6.00,++ (≥150 and <350),+ (<100)
"CC(C)Oc1ncccc1[C@H]1[C@@H](OCc2cc3cc(C4CCC4)ccc3o2)[C@H](C(C)(C)C)[C@@H](C(=O)O)N1C(=O)[C@@H]1CCCCO1 [Example 296, (2S,3R,4S,5S)-3-tert-butyl-4-[(5-cyclobutyl-1-benzofuran-2-yl)methoxy]-1-[(2S)-oxane-2-carbonyl]-5-{2-[(propan-2-yl)oxy]pyridin-3-yl}pyrrolidine-2-carboxylic acid]",5.00 to 6.00,> 6.00,++ (≥150 and <350),+ (<100)
"(2S,3R,4S,5S)-4-[(5-bromo-2-methoxypyridin-3-yl)methoxy]-3-tert-butyl-5-(2-methylphenyl)-1-[(2S)-oxane-2-carbonyl]pyrrolidine-2-carboxylic acid [Example 186]",5.00 to 6.00,> 6.00,+++ (≥350),+++ (≥200)
"(2S,3R,4S,5S)-5-(2-bromophenyl)-3-tert-butyl-4-[(5-cyclobutyl-2-methoxypyridin-3-yl)methoxy]-1-[(2S)-oxane-2-carbonyl]pyrrolidine-2-carboxylic acid [Example 177]",5.00 to 6.00,5.00 to 6.00,+++ (≥350),++ (≥100 and <200)

# Results, then the molecule that gave them:
pEC50 [1],pEC50 [2],Maximum % activity (with co-corrector),Maximum % activity (without co-corrector),Molecule
5.00 to 6.00,> 6.00,+++ (≥350),+ (<100),"CC(C)Oc1ncccc1[C@H]1[C@@H](OCc2cc3cc(Br)ccc3o2)[C@H](C(C)(C)C)[C@@H](C(=O)O)N1C(=O)[C@@H]1CCCCO1 [Example 289, (2S,3R,4S,5S)-4-[(5-bromo-1-benzofuran-2-yl)methoxy]-3-tert-butyl-1-[(2S)-oxane-2-carbonyl]-5-{2-[(propan-2-yl)oxy]pyridin-3-yl}pyrrolidine-2-carboxylic acid]"
> 6.00,> 6.00,+++ (≥350),++ (≥100 and <200),"COc1nc(C(C)(C)C)ccc1CO[C@H]1[C@H](C(C)(C)C)[C@@H](C(=O)O)N(C(=O)[C@@H]2CCCCO2)[C@H]1c1cccnc1OC(C)C [Example 290, (2S,3R,4S,5S)-3-tert-butyl-4-[(6-tert-butyl-2-methoxypyridin-3-yl)methoxy]-1-[(2S)-oxane-2-carbonyl]-5-{2-[(propan-2-yl)oxy]pyridin-3-yl}pyrrolidine-2-carboxylic acid]"
> 6.00,> 6.00,+++ (≥350),++ (≥100 and <200),"CCc1ccccc1[C@H]1[C@@H](OCc2cc3cc(Cl)ccc3o2)[C@H](C(C)(C)C)[C@@H](C(=O)O)N1C(=O)[C@@H]1CCCCO1 [Example 293, (2S,3R,4S,5S)-3-tert-butyl-4-[(5-chloro-1-benzofuran-2-yl)methoxy]-5-(2-ethylphenyl)-1-[(2S)-oxane-2-carbonyl]pyrrolidine-2-carboxylic acid]"
> 6.00,> 6.00,+++ (≥350),+++ (≥200),"COc1ncc(C2CCC2)cc1CO[C@H]1[C@H](C(C)(C)C)[C@@H](C(=O)O)N(C(=O)C2CCCCC2)[C@H]1c1ccccc1C(C)C [Example 295, (2S,3R,4S,5S)-3-tert-butyl-4-[(5-cyclobutyl-2-methoxypyridin-3-yl)methoxy]-1-(cyclohexanecarbonyl)-5-[2-(propan-2-yl)phenyl]pyrrolidine-2-carboxylic acid]"
